# What was measured:
# [1] = Equilibrium aqueous solubility of the compound at pH 2; assay type: physicochemical
# [2] = Equilibrium aqueous solubility of the compound at pH 7; assay type: physicochemical
# [3] = biological target: T1, Nuclear receptor ROR-gamma (Homo sapiens, UniProt P51449)
# T1 sequence (P51449 whole entry): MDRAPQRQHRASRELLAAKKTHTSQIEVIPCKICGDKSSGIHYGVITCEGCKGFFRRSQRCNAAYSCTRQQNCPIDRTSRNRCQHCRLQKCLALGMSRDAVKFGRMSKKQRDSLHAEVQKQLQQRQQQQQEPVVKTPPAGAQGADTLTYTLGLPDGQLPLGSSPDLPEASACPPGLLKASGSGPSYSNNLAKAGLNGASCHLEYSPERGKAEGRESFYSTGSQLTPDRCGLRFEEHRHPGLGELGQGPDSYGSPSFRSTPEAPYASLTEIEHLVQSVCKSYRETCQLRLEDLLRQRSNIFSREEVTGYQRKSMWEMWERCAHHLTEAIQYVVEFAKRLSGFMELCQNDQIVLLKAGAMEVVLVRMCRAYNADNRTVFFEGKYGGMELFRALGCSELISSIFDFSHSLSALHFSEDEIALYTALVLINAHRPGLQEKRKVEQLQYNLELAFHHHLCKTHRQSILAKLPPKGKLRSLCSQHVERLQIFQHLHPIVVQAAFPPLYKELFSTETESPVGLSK
# [4] = in vitro; details: human, liver microsomes
# [5] = in vitro; details: rat, liver microsomes
# [6] = biological target: T2, Nuclear receptor ROR-gamma (Homo sapiens) (UniProt P51449); test: Inverse agonist activity at GAL4-DNA binding domain-fused human full length RORgammat expressed in pGL4.31 transfected HEK293T cells assessed as inhibition of RORGgammat driven transcriptional activity at 2 uM after 24 hrs by luciferase reporter gene assay relative to control; assay type: cell-based
# T2 sequence (whole entry): T1 sequence (P51449 whole entry)
# [7] = Clearance in rat at 1 mg/kg, iv; assay type: ADME, organism-based; details: in vivo
# [8] = Volume of distribution at steady state in rat at 1 mg/kg, iv; assay type: ADME, organism-based; details: in vivo, read-out: Vdss
# [9] = Half life in rat at 1 mg/kg, iv; assay type: ADME, organism-based; details: in vivo
# [10] = Cmax in rat at 5 mg/kg, po; assay type: ADME, organism-based; design: dose 5 mg/kg, route oral; details: in vivo
# [11] = Half life in rat at 5 mg/kg, po; assay type: ADME, organism-based; details: in vivo
# [12] = Oral bioavailability in rat at 5 mg/kg; details: in vivo
# [13] = biological target: T2, Nuclear receptor ROR-gamma (Homo sapiens); test: Inverse agonist activity at GAL4-DNA binding domain-fused human full length RORgammat expressed in pGL4.31 transfected HEK293T cells assessed as inhibition of RORGgammat driven transcriptional activity at 3 uM after 24 hrs by dual-luciferase reporter gene assay relative to control; assay type: cell-based
# [14] = biological target: T2, Nuclear receptor ROR-gamma (Homo sapiens); test: Inverse agonist activity at GAL4-DNA binding domain-fused human RORgammat LBD expressed in pGL4.31 transfected HEK293T cells assessed as inhibition of RORGgammat driven transcriptional activity at 1 uM after 24 hrs by dual-luciferase reporter gene assay relative to control; assay type: cell-based
Structure (SMILES),solubility thermodynamic [1] [µM],solubility thermodynamic [2] [µM],also measured
COc1nc2ccc(C(O)(c3ccc(C)nc3C)c3cnnn3C)cc2c(Cl)c1OC1CCOCC1 (stereo not given),> 400,41,
COc1nc2ccc(C(O)(c3cnnn3C)c3cnc(C)n3C)cc2c(Cl)c1CN1CCC(C(F)(F)F)CC1 (stereo not given),> 400,31,
COc1nc2ccc(C(O)(c3ccnc(C(F)(F)F)c3)c3cnnn3C)cc2c(Cl)c1CN1CCC(C(F)(F)F)CC1 (stereo not given),> 400,< 4,inhibition [6]: 100%
COc1nc2ccc(C(O)(c3ccc(C)nc3C)c3cnnn3C)cc2c(Cl)c1CN1CCC(n2cccn2)CC1 (stereo not given),> 400,30,
COc1nc2ccc(C(O)(c3cnc(C)n3C)C3CCOCC3)cc2c(Cl)c1CN1CCC(C(F)(F)F)CC1 (stereo not given),> 400,283,
COc1nc2ccc(C(O)(c3ccnc(C(F)(F)F)c3)c3cncn3C)cc2c(Cl)c1CN1CCC(C(F)(F)F)CC1 (stereo not given),> 400,< 1,
COc1nc2ccc(C(O)(c3ccc(C)nc3C)c3cnnn3C)cc2c(Cl)c1OC(C)C (stereo not given),> 400,< 1,
COc1nc2ccc([C@](O)(c3ccnc(C(F)(F)F)c3)c3cnc(C)n3C)cc2c(Cl)c1CN1CCC(C(F)(F)F)CC1,> 400,< 4,inhibition [6]: 101%
COc1nc2ccc(C(O)(c3ccc(C)nc3C)c3cnnn3C)cc2c(Cl)c1CN1CCC(F)(F)CC1 (stereo not given),> 400,< 4,
COc1nc2ccc(C(O)(c3ccc(C)nc3C)c3cnnn3C)cc2c(Cl)c1CN1CC(C(F)(F)F)C1 (stereo not given),> 400,8,
COc1nc2ccc(C(O)(c3ccc(C)nc3C)c3cnnn3C)cc2c(Cl)c1OCc1nccs1 (stereo not given),> 400,< 4,
COc1nc2ccc(C(O)(c3cnc(C)n3C)C3CN(C(C)=O)C3)cc2c(Cl)c1CN1CCC(C(F)(F)F)CC1 (stereo not given),> 400,> 400,
COc1nc2ccc(C(O)(c3cnc(C)n3C)c3cnc(C)n3C)cc2c(Cl)c1CN1CCC(C(F)(F)F)CC1,> 400,4 to 7,
COc1nc2ccc(C(O)(c3ccc(C)nc3C)c3cnnn3C)cc2c(Cl)c1OCc1ncccn1 (stereo not given),> 400,336,
COc1nc2ccc([C@@](O)(c3ccc(C(F)(F)F)nc3)c3cncn3C)cc2c(Cl)c1CN1CCC(C(F)(F)F)CC1,> 400,< 1,clearance [7]: 7.9 mL/min/kg; Vd [8]: 5.7 L/kg; half-life [9]: 546 min; Cmax [10]: 553 ng/mL; half-life [11]: 510 min; bioavailability [12]: 77%
COc1nc2ccc(C(O)(c3ccc(C(F)(F)F)nc3)C3CN(C(C)=O)C3)cc2c(Cl)c1CN1CCC(C(F)(F)F)CC1 (stereo not given),> 400,< 4,inhibition [6]: 94%
COc1nc2ccc(C(O)(c3ccc(C)nc3C)c3cnnn3C)cc2c(Cl)c1C(=O)N1CCC(C(F)(F)F)CC1 (stereo not given),> 400,60,inhibition [13]: 66%; IC50 [3]: 386 nM; hepatic extraction ratio [4]: 0.8; hepatic extraction ratio [5]: 0.8
COc1nc2ccc(C(O)(c3ccc(Cl)cc3)c3cncn3C)cc2c(Cl)c1Cc1ccc(-n2cccn2)cc1 (stereo not given),< 1,< 1,clearance [7]: 11.5 mL/min/kg; Vd [8]: 4.3 L/kg; half-life [9]: 336 min; Cmax [10]: 262 ng/mL; half-life [11]: 336 min; bioavailability [12]: 42%
COc1nc2ccc(C(O)(c3ccc(C)nc3C)c3cnnn3C)cc2c(Cl)c1OCC1CC1(F)F (stereo not given),371,< 4,
COc1nc2ccc(C(O)(c3cc(C)nc(C)c3)c3cnnn3C)cc2c(Cl)c1CN1CCC(C(F)(F)F)CC1 (stereo not given),> 400,< 1,
COc1nc2ccc(C(O)(c3ccc(C)nc3C)c3cnnn3C)cc2c(Cl)c1Cc1ccc(C(F)(F)F)cc1 (stereo not given),202,< 1,inhibition [14]: 100%

# Further lines, with some results ahead:
solubility thermodynamic [1] [µM],solubility thermodynamic [2] [µM],Structure (SMILES),also measured
> 400,< 1,COc1nc2ccc(C(O)(c3ccc(C)nc3C)c3cnnn3C)cc2c(Cl)c1OCC1CC1 (stereo not given),
387,13,COc1nc2ccc(C(O)(c3ccc(C)nc3C)c3cnnn3C)cc2c(Cl)c1CC1CCS(=O)(=O)CC1 (stereo not given),IC50 [3]: 280 nM; hepatic extraction ratio [4]: 0.9; hepatic extraction ratio [5]: 0.7
> 400,< 1,COc1nc2ccc(C(O)(c3ccc(C)nc3C)c3cnnn3C)cc2c(Cl)c1CC(C)C (stereo not given),
> 400,< 1,COc1nc2ccc(C(O)(c3ccc(C)nc3C)c3cnnn3C)cc2c(Cl)c1CC1CC1 (stereo not given),
273,< 4,COc1nc2ccc(C(O)(c3ccc(C)nc3C)c3cnnn3C)cc2c(Cl)c1C1CCCC1 (stereo not given),
> 400,< 1,COc1nc2ccc(C(O)(c3ccc(C)nc3C)c3cnnn3C)cc2c(Cl)c1CC1CCC(F)(F)CC1 (stereo not given),
> 400,100,COc1nc2ccc(C(O)(c3ccc(C)nc3C)c3cnnn3C)cc2c(Cl)c1CN1CCC(F)CC1 (stereo not given),
395,< 4,COc1nc2ccc(C(O)(c3ccc(C)nc3C)c3cnnn3C)cc2c(Cl)c1CC(F)(F)F (stereo not given),
> 400,< 1,COc1nc2ccc(C(O)(c3ccc(C)nc3C)c3cnnn3C)cc2c(Cl)c1CN1CCC(C(F)(F)F)CC1 (stereo not given),
> 400,< 4,COc1nc2ccc(C(O)(c3ccc(C)nc3C)c3cnnn3C)cc2c(Cl)c1C (stereo not given),

# Source: ChEMBL document CHEMBL4340540, “3-Substituted Quinolines as RORγt Inverse Agonists” (Bioorg Med Chem Lett, 2019)
